These results are taken from publication PMC10117725, “From an Hsp90 - binding protein to a peptide drug” (microLife, 2022).

The test system of data set [1] is S. aureus USA300 internalization by HaCaT cells. In words: S. aureus USA300 invasion (internalization) into HaCaT keratinocytes. Type of data set: cell-based, human. Conditions: for relative invasion (intracellular USA300 count) in HaCaT at 20 µM: peptide 20 µM; for relative invasion (intracellular USA300 count) in HaCaT at 50 µM: peptide 50 µM; for decrease in uptake/invasion of S. aureus USA300 by HaCaT cells compared to untreated control: preincubation with L15 20 µM, L13 30 µM, geldanamycin 5 µM or α-Hsp90α antibody, MOI 30; for concentration from which a significant reduction of intracellular USA300 was observed: tested 0 to 50 µM in HaCaT. The procedure:
The invasion protocol was adapted from our previous papers (Nguyen et al. [2015], Tribelli et al. [2020]). About 5 × 10^5 Keratinocytes were seeded in a 24 well plate (Greiner, Frickenhausen, Germany) to attain a monolayer of ∼10^6 cells/well. Staphylococcusaureus was grown overnight at 37°C, centrifuged and suspended in invasion medium (DMEM with 10% FBS for HaCaT and K-SFM for NTERT-1 cells). The adherent keratinocytes were […], or 5 µM geldanamycin (Sigma-Aldrich, Germany) or monoclonal antibodies specific against Hsp90α (α‐Hsp90α, Abcam) for 1 h. After 1 h, 100 µl of bacterial suspension was added to each well to attain a MOI (multiplicity of infection) of 30 and incubated with cells for 1.5 h. Subsequently, the extracellular bacteria were killed with treatment of 2.5 μg/ml lysostaphin (Sigma-Aldrich, Germany) for 1.5 h. The cells were then washed, lysed, mechanically detached by scraping, diluted, and enumerated on TSA (Tryptic Soy Agar) plates to quantify the intracellular bacteria.

Data set [2] deals with Staphylococcus aureus. The data set can be described thus: Bacterial growth kinetics. Type of data set: cell-based. To be noted: OD578 every 1 h for 24 h, 37°C, TSB. How it is done: Staphylococcus aureus precultured in TSB overnight were inoculated to OD∼0.01 into a 48 well plate and L15 and L13 were added to study the effect of peptides on bacterial growth using Varioskan LUX Multimode Microplate Reader. With this instrument, a kinetic measurement of OD578 nm was obtained every 1 h for a total of 24 h, at 37°C with continuous shaking.

Data set [3] concerns F-actin levels in HaCaT cells. In words: F-actin measurement (ActinGreen 488 fluorescence) in HaCaT cells. Conditions: 35 µg/ml peptide (L15 20 µM, L13 30 µM), geldanamycin 5 µM; 1.5 h; ActinGreen 488 fluorescence relative to control. Type of data set: cell-based, human. The procedure: About 5 × 10^4 cells were seeded in black flat bottom 96 well cell culture microplate (Greiner, Germany) and incubated overnight. The cells were then incubated with peptides or geldanamycin for 1.5 h. After incubation, the cells were washed, permeabilised with 0.1% (v/v) Triton X-100 and stained with ActinGreen™ 488 ReadyProbes® (Thermo Fischer, Germany) for 30 min. After the staining, the cells were washed and measure for its fluorescence at Excitation/Emission: 495/518 nm (Luqman et al. [2020]).

In data set [4] the test system is S. aureus USA300. In words: Galleria mellonella larvae infection model, S. aureus USA300. Type of data set: in vivo. How it is done:
Galleria mellonella larvae, purchased from Feeders & more GmbH, Germany, were sorted based on weight and used within one week. Ten larvae per group with weight average of 500 mg/larvae were injected with bacteria and/or peptides on its last proleg using a BD insulin syringe. The dosage used for the experiment were 60 mg/kg for peptides, 5 mg/kg of geldanamycin and 20 mg/kg for vancomycin. Each larva was injected with 10 µl of L15 (last left proleg) 1 h before administration of 10^6 cfu S. aureus (last right proleg). The larvae were maintained at 37°C and observed for mortality every day over the course of 5 days.

Data set [5] has as its system phagocytosis by primary human CD14+ monocytes. The data set can be described thus: Phagocytosis of S. aureus USA300 by CD14+ monocytes. To be noted: L15 20 µM, L13 30 µM, geldanamycin 5 µM, 60 min preincubation; MOI 30, 90 min; n = 4 donors; SEM. Type of data set: cell-based. How it is done:
Peripheral Blood Mononuclear cells (PBMCs) were isolated by density gradient centrifugation following the previous study (Nguyen et al. [2022]). From the pool of PBMCs, monocytes were isolated by positive selection with anti-human CD14 microbeads (Miltenyi Biotech, Bergisch-Gladbach, Germany) following a previously reported protocol (Nguyen et al. [2022]). The purity was analysed by flow cytometry on a BD Accuri C6 (BD Biosciences, Heidelberg, Germany) with anti-human CD14-FITC, CD45-PE and propidium iodide (BD Biosciences, Heidelberg, Germany) and ranged from 85% to 98%.
For the phagocytosis, 10^6 CD14^+ monocytes were seeded in 1 ml of medium (RPMI supplemented with L-Glutamine and 10% FCS) in a 12 well plate (Greiner, Germany). The cells were incubated with 20 µM of L15, 30 µM of L13, or 5 µM of Geldanamycin for 60 min at 37°C and 5% CO2 before addition of bacteria. For the phagocytosis assay, bacterial cells were resuspended in 100 µl RPMI medium at MOI of 30 and incubated with monocytes for 90 min. The cells were washed once with PBS and 0.5 ml of medium supplemented with 2.5 µg/ml of Lysostaphin was added for 90 min to remove the extracellular bacteria. Then, monocytes were washed twice with PBS and resuspended in 0.5 ml of milliQ dH2O. The cells were scraped, and the lysed solution was transferred into a new 1.5 ml Eppendorf tube for a 5 min sonication (frequency 80, power 100) at room temperature to prevent the bacterial cell clumping by using ultrasonic water bath Elmasonic P (Elma Schmidbauer Gmb, Singen, Germany). About 10 µl fractions of undiluted, 10^−1, 10^−2, and 10^−3 dilutions were inoculated on tryptic soy agar (TSA) plates and incubated overnight at 37°C. The numbers of internalized bacteria were determined based on the manual counting of bacterial colony forming units (cfu) recovered on the agar plates.

Data set [6] concerns N/TERT-1 cells. In words: Cytotoxicity in N/TERT-1 cells at tested concentration. The format is cell-based, human. To be noted: concentrations used in invasion studies (Fig. S1). The procedure: MTT (3-(4,5-dimethylthiazol-2-yl)-2,5-diphenyl tetrazolium bromide) assay was employed to analyze the cytotoxicity of peptides and geldanamycin to the cells. 5 × 10^5 cells were seeded in a 96 flat bottom well plate and incubated for 2.5 or 24 h at 37°C with 5% CO2. The cells were then treated with increasing concentration (0 to 200 µM) of peptides or geldanamycin for 24 h. After the incubation, 10 μl of the MTT labelling reagent is added to each well to attain a final concentration 0.5 mg/ml, followed by 4 h incubation. Metabolically active cells convert the yellow tetrazolium salt to purple formazan crystals, which were solubilized using the solubilization solution (DMSO) and measured for absorbance at λmax/λref–570/690 nm (Saising et al. [2018]).

Where no end group is shown, it is not given here.

As to GHYFVTTFY [L13], in data set [1] (untreated control 1.0 ± 0.0), the “relative invasion (intracellular USA300 count) in HaCaT at 20 µM” value was 0.67 ± 0.05 and the “relative invasion (intracellular USA300 count) in HaCaT at 50 µM” value is 0.73 ± 0.18. The “relative invasion (intracellular USA300 count) in HaCaT at 40 µM” value in data set [1] (peptide 40 µM, untreated control 1.0 ± 0.0) is given as 0.41 ± 0.03. Besides, in data set [1], the “decrease in uptake/invasion of S. aureus USA300 by HaCaT cells compared to untreated control” value was 50–60% and the “concentration from which a significant reduction of intracellular USA300 was observed” value was not below 20 µM. The “effect on growth of S. aureus” value in data set [2] is on record as “did not detect any effect on growth”. Further, in data set [3], the “Relative F-actin level in HaCaT” value is on record as 0.87 ± 0.03. In addition, the “larvae surviving on day 5, S. aureus USA300” value in data set [4] (peptides 60 mg/kg injected 1 h before 10^6 cfu, 37°C, 10 larvae per group, three biological replicates) was determined as 23%. Moreover, in data set [5], the “decrease of phagocytosis of S. aureus into CD14+ monocytes” value is listed as “about 62.0 ± 6.80%”. The “toxicity to N/TERT-1 cells at tested concentration and exposure time” value in data set [6] is “neither inhibit the viability of host cells”.
With TAKGHYFVTTFYRNG [L15], in data set [1] (untreated control 1.0 ± 0.0), the “relative invasion (intracellular USA300 count) in HaCaT at 20 µM” value turned out to be 0.33 ± 0.24 and the “relative invasion (intracellular USA300 count) in HaCaT at 50 µM” value stood at 0.40 ± 0.05. In data set [1], the “decrease in uptake/invasion of S. aureus USA300 by HaCaT cells compared to untreated control” value is 50–60% and the “concentration from which a significant reduction of intracellular USA300 was observed” value is given as not below 20 µM. Moreover, in data set [2], the “effect on growth of S. aureus” value is reported as “did not detect any effect on growth”. In data set [3], the “Relative F-actin level in HaCaT” value is 0.83 ± 0.04. In addition, the “reduction of lethality of S. aureus in the insect model” value in data set [4] (G. mellonella model) was “about 30%”. In data set [5], the “decrease of phagocytosis of S. aureus into CD14+ monocytes” value is listed as “about 22.6 ± 7.67%”. The “toxicity to N/TERT-1 cells at tested concentration and exposure time” value in data set [6] is “neither inhibit the viability of host cells”.
